# Results: patent US10759831B2, “Peptide compound, production method therefor, and use thereof” (iNtRON Biotechnology, Inc., priority 2014, dated 2020)
# What was measured:
# [1] = test system: liver cancer cell line SK-HEP-1; experiment: SRB cell viability assay, liver cancer cell line SK-HEP-1; type: cell-based; conditions: Homo sapiens, SK-HEP1; SK-HEP-1, 72 hours; read-out: Cell growth inhibition concentration (IC50)
# Description: Regarding a lung cancer cell line A549 (Korean Cell line Bank), a colon cancer cell line HCT116 (ATCC), a stomach cancer cell line SNU638 (Korean Cell Line Bank), a liver cancer cell line SK-HEP-1 (Korean Cell line Bank), and a breast cancer cell line MDA-MB-231 (Korean Cell line Bank), a sulforhodamine B (SRB) assay which is a method of measuring cell viability was used for measuring apoptosis effects of Asperphenin.
# (§1) In detail, 190 μl of a cell suspension at a concentration of 3.5×10^4 cells/ml was inoculated in each well of a 96-well microplate. 0.8 μM, 4 μM, 20 μM, or 100 μM of Asperphenin was added to the cell culture medium, and cultured at a temperature of 37° C. for 72 hours under the condition of 5% CO2. After incubation, 50 μl of 50% (v/v) trichloroacetic acid solution (Sigma Aldrich) was added to each well, and then, incubated at a temperature of 4° C. for 30 minutes, to thereby fix the cells thereto. The fixed cells were washed with water five times, and then, dried in the air.
# Next, 80 μl of a 0.4% (w/v) SRB aqueous solution (Sigma Aldrich) containing 1% (v/v) acetic acid (DUKSAN) was added to each well, incubated at room temperature for 1 hour to stain cells therein, and the stained cells washed with water and dried. The cells were dissolved by adding 200 μl of 10 mM Tris (pH 10.0) (Sigma Aldrich) to each well, and then, the number of living cells was calculated by measuring the absorbance thereof at 515 nm. The concentration of the compound inhibiting cell growth to 50% based on the number of the living cells, i.e., 50% inhibition concentration (IC50) was calculated, and the results are shown in Table 3. Here, as a positive control, etoposide (Sigma Aldrich) was used.
# [2] = test system: colon cancer cell line RKO; experiment: SRB cell viability assay, colon cancer cell line RKO; type: cell-based; conditions: Homo sapiens, read-out: Growth inhibition value of cancer cell (IC50)
# Description: as §1
# Next, 80 μl of a 0.4% (w/v) SRB aqueous solution (Sigma Aldrich) containing 1% (v/v) acetic acid (DUKSAN) was added to each well, incubated at room temperature for 1 hour to stain cells therein, and the stained cells washed with water and dried. The cells were dissolved by adding 200 μl of 10 mM Tris (pH 10.0) (Sigma Aldrich) to each well, and then, the number of living cells was calculated by measuring the absorbance thereof at 515 nm. […]
# From the colon cancer cell lines HCT116 (ATCC), HCT15 (Korean Cell Line Bank), LS174T (Korean Cell Line Bank), RKO(ATCC), and SW480(ATCC), cell growth inhibition concentrations (IC50, μM) were calculated as described in Example 2-1, and the results are shown in Table 4. […]
# [3] = test system: colon cancer cell line RKO; experiment: Cell cycle analysis by PI flow cytometry; type: cell-based, human
# Description: The effects of Asperphenin B on the cell cycle of the colon cancer cell line RKO was confirmed by flow cytometry.
# RKO cells (ATCC) were diluted in a medium containing 10% (v/v) FBS to become 1×10^5 cells/ml, and then, inoculated into a 60 mm culture dish. The inoculated cells were cultured for about 24 hours at a temperature of 37° C. under the condition of 5% CO2. The cultured cells were washed with phosphate-buffered saline (PBS) once, and the medium was replaced by a fresh medium. Asperphenin B at the final concentration of 0.625 μM, 1.25 μM, 2.5 μM, 5 μM, or 10 μM was added to the cultured cells, and then, the cells were cultured at a temperature of 37° C. under condition of 5% CO2.
# After a certain period of time, cells attached to the culture dish and cells not attached to the medium were collected. The collected cells was washed with PBS once, and then, 1 ml of cold 70% (v/v) ethanol. The cells were incubated at a temperature of 4° C. for about 12 hours to fix the cells. After removing 70% (v/v) ethanol, the fixed cells were washed with PBS once. 500 μl of RNase A (Sigma Aldrich) at a concentration of 50 μg/ml as added to the cells, and the cells were incubated at room temperature for about 30 minutes. Propidium iodide (PI) at a final concentration of 50 μg/ml was added to the cells, and then, the cells were incubated at room temperature for about 30 minutes in a condition where reactants were in the shaded state. The cells stained with PI were subjected to analysis of cell cycle by using a BD FACSCalibur flow cytrometer (manufactured by BD Biosciences). Based on the flow cytometry results, cell ratios at the sub-G1, G0/G1, S, and G2/M phases were calculated. Here, as a negative control, cells to which Asperphenin B was not added was used.
# When the RKO cells were incubated for 48 hours in the presence of Asperphenin B, cell ratios (%) dependent on the concentration of Asperphenin B are shown in FIG. 3A and Table 5. When the RKO cells were incubated in the presence of Asperphenin B at the concentrations of 2.5 μM and 5 μM, cell ratios (%) dependent on the incubation time are shown in FIGS. 3B and 3C, and Table 6.
# [4] = RKO cells, 2.5 μM, 48 hours, Table 6
# [5] = RKO cells, 5 μM, 48 hours, Table 6
# [6] = RKO cells, 48 hours, 2.5 μM, Table 5
# [7] = RKO cells, 48 hours, 5 μM, Table 5
structure (smiles),measurement,setting,value
CCCCCCCCC[C@@H](O)CC(=O)N[C@@H](CC(N)=O)C(=O)N[C@@H](CCC(N)=O)C(=O)N[C@H](CC(=O)c1cc(C)cc(O)c1C(=O)c1c(O)cccc1O)CC(C)C [Asperphenin B],IC50,[1],3000 nM
same,IC50,[2],1170 nM
same,Effect on cells in the G2/M phase,"[3]; 2.5 μM or 5 μM, until 24 hours of treatment",cell cycle arrest
same,Effect after 48 hours of treatment,"[3]; RKO cells, 2.5 μM or 5 μM, 48 hours",cell apoptosis was induced
same,"Cell ratio, G0/G1 phase","[3]; RKO cells, 2.5 μM, 6 hours",62.16%
same,"Cell ratio, G2/M phase","[3]; RKO cells, 2.5 μM, 6 hours",18.28%
same,"Cell ratio, S phase","[3]; RKO cells, 2.5 μM, 6 hours",13.82%
same,"Cell ratio, Sub-G1 phase","[3]; RKO cells, 2.5 μM, 6 hours",3.77%
same,"Cell ratio, G0/G1 phase","[3]; RKO cells, 2.5 μM, 12 hours",56.50%
same,"Cell ratio, G2/M phase","[3]; RKO cells, 2.5 μM, 12 hours",22.18%
same,"Cell ratio, S phase","[3]; RKO cells, 2.5 μM, 12 hours",15.09%
same,"Cell ratio, Sub-G1 phase","[3]; RKO cells, 2.5 μM, 12 hours",3.25%
same,"Cell ratio, G0/G1 phase","[3]; RKO cells, 2.5 μM, 24 hours",30.73%
same,"Cell ratio, G2/M phase","[3]; RKO cells, 2.5 μM, 24 hours",40.76%
same,"Cell ratio, S phase","[3]; RKO cells, 2.5 μM, 24 hours",17.38%
same,"Cell ratio, Sub-G1 phase","[3]; RKO cells, 2.5 μM, 24 hours",5.03%
same,"Cell ratio, G0/G1 phase",[3]; [4],17.80%
same,"Cell ratio, G2/M phase",[3]; [4],39.31%
same,"Cell ratio, S phase",[3]; [4],6.55%
same,"Cell ratio, Sub-G1 phase",[3]; [4],33.38%
same,"Cell ratio, G0/G1 phase","[3]; RKO cells, 5 μM, 6 hours",60.66%
same,"Cell ratio, G2/M phase","[3]; RKO cells, 5 μM, 6 hours",20.21%
same,"Cell ratio, S phase","[3]; RKO cells, 5 μM, 6 hours",13.48%
same,"Cell ratio, Sub-G1 phase","[3]; RKO cells, 5 μM, 6 hours",3.19%
same,"Cell ratio, G0/G1 phase","[3]; RKO cells, 5 μM, 12 hours",57.60%
same,"Cell ratio, G2/M phase","[3]; RKO cells, 5 μM, 12 hours",20.93%
same,"Cell ratio, S phase","[3]; RKO cells, 5 μM, 12 hours",14.63%
same,"Cell ratio, Sub-G1 phase","[3]; RKO cells, 5 μM, 12 hours",3.80%
same,"Cell ratio, G0/G1 phase","[3]; RKO cells, 5 μM, 24 hours",28.35%
same,"Cell ratio, G2/M phase","[3]; RKO cells, 5 μM, 24 hours",48.88%
same,"Cell ratio, S phase","[3]; RKO cells, 5 μM, 24 hours",14.08%
same,"Cell ratio, Sub-G1 phase","[3]; RKO cells, 5 μM, 24 hours",4.86%
same,"Cell ratio, G0/G1 phase",[3]; [5],20.53%
same,"Cell ratio, G2/M phase",[3]; [5],23.37%
same,"Cell ratio, S phase",[3]; [5],5.90%
same,"Cell ratio, Sub-G1 phase",[3]; [5],48.23%
same,"Cell ratio, G0/G1 phase","[3]; RKO cells, 48 hours, 0.625 μM",52.49%
same,"Cell ratio, G2/m phase","[3]; RKO cells, 48 hours, 0.625 μM",29.56%
same,"Cell ratio, S phase","[3]; RKO cells, 48 hours, 0.625 μM",8.11%
same,"Cell ratio, Sub-G1 phase","[3]; RKO cells, 48 hours, 0.625 μM",7.14%
same,"Cell ratio, G0/G1 phase","[3]; RKO cells, 48 hours, 1.25 μM",23.02%
same,"Cell ratio, G2/m phase","[3]; RKO cells, 48 hours, 1.25 μM",43.94%
same,"Cell ratio, S phase","[3]; RKO cells, 48 hours, 1.25 μM",6.39%
same,"Cell ratio, Sub-G1 phase","[3]; RKO cells, 48 hours, 1.25 μM",24.18%
same,"Cell ratio, G0/G1 phase",[3]; [6],17.99%
same,"Cell ratio, G2/m phase",[3]; [6],34.58%
same,"Cell ratio, S phase",[3]; [6],6.63%
same,"Cell ratio, Sub-G1 phase",[3]; [6],38.60%
same,"Cell ratio, G0/G1 phase",[3]; [7],17.59%
same,"Cell ratio, G2/m phase",[3]; [7],15.97%
same,"Cell ratio, S phase",[3]; [7],5.29%
same,"Cell ratio, Sub-G1 phase",[3]; [7],59.90%
same,"Cell ratio, G0/G1 phase","[3]; RKO cells, 48 hours, 10 μM",17.07%
same,"Cell ratio, G2/m phase","[3]; RKO cells, 48 hours, 10 μM",8.92%
same,"Cell ratio, S phase","[3]; RKO cells, 48 hours, 10 μM",5.46%
same,"Cell ratio, Sub-G1 phase","[3]; RKO cells, 48 hours, 10 μM",67.82%
